# From patent US8728771B2, “L-succinylaminoacylase and process for producing L-amino acid using it” (Toyo Boseki Kabushiki Kaisha, priority 2008, dated 2014)
# How the values were obtained:
# [1] = test system: L-succinylaminoacylase disclosed in Patent Document 3; assay: Comparative experiment for enzymatic activity (ii), enzyme of Patent Document 3 (Example 7); format: biochemical, Geobacillus stearothermophilus NCA 1503 strain; settings: 4 hours, 50° C., pH 7.5, cobalt acetate
# Protocol: (§1) Each of N-succinyl-DL-4-bromophenylalanine, N-succinyl-DL-biphenylalanine, N-succinyl-DL-3,4-dichlorophenylalanine, N-succinyl-DL-cyclohexylglycine, and N-succinyl-DL-tert-leucine synthesized in the above (3) was used to prepare an amino acid solution of 10% by weight (pH 7.5). Mixed solution of 0.25 ml of 0.1M HEPES-NaOH buffer (pH 7.5), 0.025 ml of 0.1M cobalt acetate solution, 0.5 ml of each amino acid solution and 4.2 ml of distilled water was prepared. To the resulting solution was added 0.025 ml of a solution of the L-succinylaminoacylase disclosed in Example 1 of Patent Document 3 made into 5 mg/ml or a solution of the L-succinylaminoacylase of the present invention prepared in the above Example 1 made into 5 mg/ml. The resulting reaction solution was subjected to a reaction for 4 hours with stirring at 50° C. After completion of the reaction, a sample was collected therefrom and subjected to an HPLC measurement under the same condition as in Example 2 to calculate the conversion rate into each of the L-amino acids corresponding to N-succinyl-DL-4-bromophenylalanine, N-succinyl-DL-biphenylalanine, N-succinyl-DL-3,4-dichlorophenylalanine, N-succinyl-DL-cyclohexylglycine, and N-succinyl-DL-tert-leucine.
# [2] = test system: L-succinylaminoacylase of the present invention; assay: Comparative experiment for enzymatic activity (ii), enzyme of the present invention (Example 7); format: biochemical, Geobacillus stearothermophilus IFO 12983 strain; settings: 4 hours, 50° C., pH 7.5, cobalt acetate
# Protocol: as §1
# [3] = test system: L-succinylaminoacylase of the present invention; assay: Hydrolysis of N-succinyl-DL-amino acid to L-amino acid by L-succinylaminoacylase, HPLC (Examples 2 and 3); format: biochemical, Geobacillus stearothermophilus IFO 12983 strain; settings: for Yield (%) of corresponding L-amino acid: 10% by weight substrate, 96 hours, same condition as in Example 2 (57° C., 0.5 mM CoCl2)
# Protocol: The N-succinyl-DL-tert-leucine synthesized in the above (1) was dissolved in distilled water and its pH was adjusted using 0.1N sodium hydroxide (manufactured by Nacalai tesque) to prepare a 5% by weight solution of N-succinyl-DL-tert-leucine (pH 7 to 8). […] This reaction solution was kept at 57° C. for 144 hours with stirring.
# Column: Inertsil ODS-2 (particle size: 5 μm; 4.6 mm inner diameter×250 mm length) manufactured by GL Science
# Eluant: aqueous solution of phosphate (pH 2.3)/acetonitrile for HPLC=80:20
# Column temperature: 40° C.
# The reaction was carried out for 96 hours under the same condition as in Example 2 using N-succinyl-DL-valine, N-succinyl-DL-phenylalanine, N-succinyl-DL-tryptophan, N-succinyl-DL-asparagine, N-succinyl-DL-serine, N-succinyl-DL-tyrosine, or N-succinyl-DL-cyclohexylglycine synthesized in the above (2) and (3) instead of N-succinyl-DL-tert-leucine. However, concentration of each N-succinyl-DL-amino acid was made 10% by weight. After completion of the reaction, a sample was collected therefrom and subjected an HPLC measurement under the same condition as in Example 2 to calculate the conversion rate into each L-amino acid corresponding to N-succinyl-DL-valine, N-succinyl-DL-phenylalanine, N-succinyl-DL-tryptophan, N-succinyl-DL-asparagine, N-succinyl-DL-serine, N-succinyl-DL-tyrosine, and N-succinyl-DL-cyclohexylglycine.
# [4] = test system: L-succinylaminoacylase of the present invention and N-succinylamino acid racemase; assay: Synthesis of L-tert-leucine using L-succinylaminoacylase and N-succinylamino acid racemase (i) (Example 4); format: biochemical, Geobacillus stearothermophilus; settings: 1% by weight substrate, racemase prepared in (1) added, 90 hours; 100% is the theoretically highest yield
# Protocol: The reaction was carried out for 90 hours under the same condition as in Example 2 except that the concentration of the N-succinyl-DL-tert-leucine solution was made 1% by weight and that 0.1 ml of a 9.6 mg/ml solution of N-succinylamino acid racemase prepared in the above (1) was previously added to the reaction solution. After completion of the reaction, the sample was collected therefrom and subjected to an HPLC measurement under the same condition as in Example 2 to calculate the yield of L-tert-leucine whereupon the yield was not lower than 90% and the value being nearly equal to 100% which is the theoretically highest yield was achieved.
# [5] = test system: L-succinylaminoacylase of the present invention and N-succinylamino acid racemase; assay: Synthesis of L-tert-leucine using L-succinylaminoacylase and N-succinylamino acid racemase (ii) (Example 5); format: biochemical; settings: 1% by weight substrate, racemase prepared in (2) added, up to 120 hours
# Protocol: The same reaction as in Example 4 was carried out for 120 hours except that the product prepared in the above (2) was used as an N-succinylamino acid racemase. The sample was collected after 24 hours, 48 hours and 120 hours from the start of the reaction and subjected to an HPLC measurement under the same condition as in Example 2 to confirm the synthesis of L-tert-leucine from N-succinyl-DL-tert-leucine.
# [6] = test system: L-succinylaminoacylase of the present invention; assay: Comparative experiment for enzymatic activity (i), with racemase (Example 6); format: biochemical, Geobacillus stearothermophilus IFO 12983 strain; settings: 5% by weight substrate, racemase (2), 50° C., up to 144 hours, FIG. 3
# Protocol: The N-succinyl-DL-tert-leucine synthesized in the above (1) was dissolved in distilled water and its pH was adjusted using 0.1N sodium hydroxide (manufactured by Nacalai tesque) to prepare a 5% by weight solution of N-succinyl-DL-tert-leucine (pH 7 to 8). To 10 ml of this solution were added 0.5 mM (final concentration) of CoCl2 and 0.1 ml of the N-succinylamino acid racemase in the above (2) prepared in 10 mg/ml. To the resulting solution was added 0.1 ml of the L-succinylaminoacylase disclosed in Example 1 of Patent Document 3 made into 2.5 mg/ml or a solution of the L-succinylaminoacylase of the present invention prepared in the above Example 1 and made into 2.5 mg/ml. The prepared reaction solution was kept at 50° C. for 144 hours with stirring. The sample was collected after 24 hours, 48 hours, 72 hours and 144 hours from the start of the reaction and subjected to an HPLC measurement to confirm the peaks of succinyl-form compound and free-form compound whereby the synthesis of L-tert-leucine from N-succinyl-DL-tert-leucine was confirmed.
# [7] = Physical and chemical properties of the L-succinylaminoacylase (temperature stability, optimum temperature, optimum pH); format: physicochemical
# Protocol: Physical and chemical properties of the L-succinylaminoacylase of the present invention are as shown in the following (i) to (v).
# (iii) Temperature stability: When it is subjected to a heating treatment for 30 minutes, it is stable at 70° C. and is inactivated at 75° C. or higher;
# (iv) Optimum temperature: When it is made to react at pH 7 to 8, its action is optimum at the temperature of 55 to 60° C.; and
# (v) Optimum pH: When it is made to react at 60° C. for 30 minutes, its action is optimum at pH 7.
# [8] = Metal ion dependence of L-succinylaminoacylase activity; format: biochemical
# Description: Examples of the divalent or univalent metal ion include Mn^2+, Co^2+, Mg^2+, Ca^2+, Ni^2+ and K^+ and, among them, Co^2+ is particularly preferred. It has been known that, when Co^2+ is used, the activity increased to an extent of twice or more as compared with the case where Zn^2+ is used.
# [9] = heating treatment for 30 minutes
molecule,measurement,setting,value
O=C(O)CCC(=O)NC(Cc1ccc(Br)cc1)C(=O)O (racemic) [N-succinyl-DL-4-bromophenylalanine],Conversion rate by L-succinylaminoacylase of Patent Document 3 (%),[1],97.1%
same,Conversion rate by L-succinylaminoacylase of the present invention (%),[2],97.5%
NC(=O)CC(NC(=O)CCC(=O)O)C(=O)O (racemic) [N-succinyl-DL-asparagine],Yield (%) of corresponding L-amino acid,[3],42.5%
O=C(O)CCC(=O)NC(Cc1ccc(-c2ccccc2)cc1)C(=O)O (racemic) [N-succinyl-DL-biphenylalanine],Conversion rate by L-succinylaminoacylase of Patent Document 3 (%),[1],8.8%
same,Conversion rate by L-succinylaminoacylase of the present invention (%),[2],74.1%
O=C(O)CCC(=O)NC(C(=O)O)C1CCCCC1 (racemic) [N-succinyl-DL-cyclohexylglycine],Yield (%) of corresponding L-amino acid,[3],49.2%
same,Conversion rate by L-succinylaminoacylase of Patent Document 3 (%),[1],53.6%
same,Conversion rate by L-succinylaminoacylase of the present invention (%),[2],97.3%
"O=C(O)CCC(=O)NC(Cc1ccc(Cl)c(Cl)c1)C(=O)O (racemic) [N-succinyl-DL-dichlorophenylalanine, N-succinyl-DL-3,4-dichlorophenylalanine]",Conversion rate by L-succinylaminoacylase of Patent Document 3 (%),[1],82.0%
same,Conversion rate by L-succinylaminoacylase of the present invention (%),[2],83.3%
O=C(O)CCC(=O)NC(Cc1ccccc1)C(=O)O (racemic) [N-succinyl-DL-phenylalanine],Yield (%) of corresponding L-amino acid,[3],37.5%
O=C(O)CCC(=O)NC(CO)C(=O)O (racemic) [N-succinyl-DL-serine],Yield (%) of corresponding L-amino acid,[3],43.4%
CC(C)(C)C(NC(=O)CCC(=O)O)C(=O)O (racemic) [N-succinyl-DL-tert-leucine],Yield (conversion rate) of L-tert-leucine,"[3]; 5% by weight substrate, 0.5 mM CoCl2, 57° C., pH 7 to 8, up to 144 hours, 50% is the theoretically highest yield",~50%
same,Yield of L-tert-leucine,[4],≥ 90%
same,Yield of L-tert-leucine,[5],≥ 90%
same,Conversion rate from N-succinyl-DL-tert-leucine to L-tert-leucine compared with enzyme of Patent Document 3,[6],significantly high conversion rate
same,Conversion rate by L-succinylaminoacylase of Patent Document 3 (%),[1],0.1%
same,Conversion rate by L-succinylaminoacylase of the present invention (%),[2],45.7%
O=C(O)CCC(=O)NC(Cc1c[nH]c2ccccc12)C(=O)O (racemic) [N-succinyl-DL-tryptophan],Yield (%) of corresponding L-amino acid,[3],31.4%
O=C(O)CCC(=O)NC(Cc1ccc(O)cc1)C(=O)O (racemic) [N-succinyl-DL-tyrosine],Yield (%) of corresponding L-amino acid,[3],19.1%
CC(C)C(NC(=O)CCC(=O)O)C(=O)O (racemic) [N-succinyl-DL-valine],Yield (%) of corresponding L-amino acid,[3],42.4%
"L-succinylaminoacylase of the present invention: protein of amino acid sequence SEQ ID No: 2, L-succinylaminoacylase of IFO 12983 strain of Geobacillus stearothermophilus (protein, listed as Geobacillus stearothermophilus) MKEIIQQMKAELWSIFDYLHRHPEISWEEWGTTEFVRRELEREGYRVWTFADCPGVVAEIGDGPFMVGVRSDMDALWQEVNGVWQPNHACGHDAHMTIVLGVAKLLRRIGYEPPGTLRFLFQPAEEKGTGALKLIEKGAVDGMSFLYGVHLRPVQEVKSGYATPAIIHGAAQCIEGRIRGMAAHAARPHLGVNVIEVGSAIVQELGKIHVDPQVPATIKMTRFHAGEKDVNTIPDYAEFSLDLRAQTNEAMEQLVERLRRVVNGVAAIYGAEIELDERTRIVAANPDLDAKRLMEEAIIAVLGEEKCIPPVITSGGEDFHFYAFKKPELKTTMLGLGCDLRPGLHHPQMTFQRDDLLSGIEILARTVINTFALQGEKERVSIAANH",Temperature stability: inactivated at,[7]; [9],≥ 75 °C
same,Temperature stability: stable at,[7]; [9],70 °C
same,Optimum pH,[7]; reaction at 60° C. for 30 minutes,7
same,Increase of activity with Co^2+ as compared with Zn^2+,[8],twice or more
